Measurements from patent US11998549B2, “Methods of treating a vascular leakage-associated disease or disorder” (UNITY HEALTH TORONTO, priority 2019, dated 2024).

Experiments:
[1] = test system: LPS-induced tailfin edema; assay: Tailfin edema in LPS-treated zebrafish larvae; assay type: in vivo
Procedure: An LPS induced zebrafish sepsis model which mimics the hallmarks of human sepsis was developed (Philip et al., 2017). Zebrafish show varied susceptibility and responsiveness to LPS from different bacterial strains. Exposure of zebrafish larvae at 3 days post-fertilization (dpf) to two types of LPS (LPS from Escherichia coli 0111:B4 (Sigma) at 100 μg/ml for 5-6 hrs; or LPS from Salmonella at 27 μg/ml for 24 hrs) were both effective in inducing tail fin swelling, increased ROS production, increased vascular leakage and increased mortality.

[2] = test system: human pulmonary microvascular endothelial cells (HPMECs); assay: FITC dextran permeability assay in HPMEC monolayer; assay type: cell-based; settings: FITC-conjugated dextran
Description: Cultured endothelial cells are used to model the microvascular endothelium, because of the feasibility of performing complex molecular or pharmacological experiments to study cellular signalling pathways related to barrier function and integrity. In addition, the lung is the organ most often affected by sepsis induced-MODS. To determine the functional significance of G9a inhibition in human cells, solute permeability and electrical resistance across a confluent human pulmonary microvascular endothelial cell (HPMEC) monolayer was assessed. For both experiments HPMECs were seeded on 0.4 μm-pore polyester transwells (Costar) coated with Attachment Factor (Invitrogen), grown to confluency, and then […] with either UNC0462 or vehicle control.
FITC fluorescence was be measured at different time intervals in samples taken from the bottom compartment as a measure of paracellular dextran leak.

CLP-induced mortality = assay: Mouse cecal ligation and puncture (CLP) model of sepsis, survival; assay type: in vivo; settings: intravenous infusion of 1 mg/kg
Procedure: The CLP model is a well established clinically relevant model for human sepsis (Smeding et al., 2012; Amatullah et al., 2016). Male 8-12 week old C57/B16 mice (Jackson lab) were randomized to CLP or sham surgeries. In anesthetised mice, the cecum was exteriorized, ligated, and perforated. Control animals were exposed to sham surgery, in which the cecum was manipulated, but not ligated or punctured. After surgery, animals received daily fluid resuscitation (subcutaneous (s.c.) 50 ml/kg saline), antibiotic (intraperitoneal (i.p.) imipenem 25 mg/kg) and pain management (s.c. buprenorphine 0.2 mg/kg). Experiments were divided into 2 groups: (1) to assess 7-day survival, and (2) to identify a mechanism of action of a G9a inhibitor in vivo. All experimental mice were randomized and investigators were blinded to group assignment.

COc1cc2c(NC3CCN(C(C)C)CC3)nc(N3CCC(F)(F)CC3)nc2cc1OCCCN1CCCC1 [UNC0642, 2-(4,4-Difluoropiperidin-1-yl)-6-methoxy-N-[1-(propan-2-yl)piperidin-4-yl]-7-(3-(pyrrolidin-1-yl)propoxy]quinazolin-4-amine] was tested, and the LPS-induced tailfin edema [1] was “significantly reduced”, the “LPS-induced endothelial barrier dysfunction (increased dextran leakage)” value [2] was “significantly mitigate” and the “Reduction of CLP-induced absolute mortality” value (CLP-induced mortality) was roughly 50%.
